One experiment has as its target Go (Homo sapiens, UniProt P09471). The following applies: unactivated form, reconstituted vesicle systems (McEwen et al.); cited from earlier work.
The target in another experiment is Gi1 (Homo sapiens, UniProt P63096). The following applies: unactivated form, reconstituted vesicle systems (McEwen et al.); cited from earlier work.
The next experiment addresses Gi2 (Homo sapiens, UniProt P04899). The settings on record: unactivated form, reconstituted vesicle systems (McEwen et al.); cited from earlier work.
The next experiment concerns the target Gs (Homo sapiens, UniProt P63092). The settings on record: unactivated form, reconstituted vesicle systems (McEwen et al.); cited from earlier work.
Experiment [1] deals with T1, neurotensin receptor subtype 1 (NTR1) (Homo sapiens, UniProt P30989).
T1 construct: purchased Perkin Elmer Life Science (Boston, Mass.)
T1 sequence (P30989 whole entry): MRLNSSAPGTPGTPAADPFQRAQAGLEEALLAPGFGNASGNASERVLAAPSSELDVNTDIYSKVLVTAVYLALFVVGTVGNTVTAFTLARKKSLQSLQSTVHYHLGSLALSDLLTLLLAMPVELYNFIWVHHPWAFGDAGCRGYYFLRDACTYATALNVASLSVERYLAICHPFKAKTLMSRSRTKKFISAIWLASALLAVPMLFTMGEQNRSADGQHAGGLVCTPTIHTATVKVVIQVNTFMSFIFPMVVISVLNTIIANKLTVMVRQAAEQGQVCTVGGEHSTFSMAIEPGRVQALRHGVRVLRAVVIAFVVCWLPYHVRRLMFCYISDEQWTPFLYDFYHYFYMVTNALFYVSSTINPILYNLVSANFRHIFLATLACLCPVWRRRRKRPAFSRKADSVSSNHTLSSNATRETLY
Kind of experiment: Competition binding of BT-neurotensin to NTR1 receptor arrays on CMT-GAPS slides. The following applies: BT-NT 2 nM, unlabeled ligand 1 μM.

Another experiment addresses β1 (Homo sapiens, UniProt P08588). Kind of experiment: Family-specific adrenergic receptor array, competition with BODIPY-TMR-CGP12177. The class given is binding. Here is the method: FIGS. 9A, 9B and 9C illustrate GPCR theme arrays used to differentiate the selectivity of compounds of interest to receptors relating to a single subfamily. Multiple arrays of β1, β2 and α2A were fabricated on an APTES-modified gold surface. Within each array there were three columns of five replicates, corresponding to β1, β2 and α2A from the left to right column, respectively. The array incubated with 5 nM BT-CGP only was used as positive control (FIG. 9A). […] Three receptors belonging to the same family, adrenergic receptors, were arrayed within a single grid, and replicates of this grid were arrayed on a single slide. The receptors were β1, β2 and α2A, respectively.

The next experiment deals with T2, α2A (Homo sapiens, UniProt P08913).
T2 sequence (P08913 1-465): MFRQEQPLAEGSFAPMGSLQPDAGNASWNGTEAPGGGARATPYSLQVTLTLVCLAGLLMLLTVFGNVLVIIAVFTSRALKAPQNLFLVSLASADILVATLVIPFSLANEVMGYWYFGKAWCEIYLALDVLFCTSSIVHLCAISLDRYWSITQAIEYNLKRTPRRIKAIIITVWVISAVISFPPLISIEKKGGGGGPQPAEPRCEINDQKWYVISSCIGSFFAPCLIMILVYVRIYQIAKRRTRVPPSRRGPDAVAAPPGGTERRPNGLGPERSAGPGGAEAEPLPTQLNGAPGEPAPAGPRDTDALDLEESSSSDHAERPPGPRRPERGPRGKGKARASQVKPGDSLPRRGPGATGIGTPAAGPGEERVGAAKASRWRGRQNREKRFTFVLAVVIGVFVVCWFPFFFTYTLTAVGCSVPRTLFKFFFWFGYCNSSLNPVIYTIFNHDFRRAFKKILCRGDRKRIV
The following applies: known value; cited from earlier work.

pKd, pKi: −log10 of the molar value. A value given as a limit tells only on which side of the number the result lay.

Chain of β1 (P08588 whole entry): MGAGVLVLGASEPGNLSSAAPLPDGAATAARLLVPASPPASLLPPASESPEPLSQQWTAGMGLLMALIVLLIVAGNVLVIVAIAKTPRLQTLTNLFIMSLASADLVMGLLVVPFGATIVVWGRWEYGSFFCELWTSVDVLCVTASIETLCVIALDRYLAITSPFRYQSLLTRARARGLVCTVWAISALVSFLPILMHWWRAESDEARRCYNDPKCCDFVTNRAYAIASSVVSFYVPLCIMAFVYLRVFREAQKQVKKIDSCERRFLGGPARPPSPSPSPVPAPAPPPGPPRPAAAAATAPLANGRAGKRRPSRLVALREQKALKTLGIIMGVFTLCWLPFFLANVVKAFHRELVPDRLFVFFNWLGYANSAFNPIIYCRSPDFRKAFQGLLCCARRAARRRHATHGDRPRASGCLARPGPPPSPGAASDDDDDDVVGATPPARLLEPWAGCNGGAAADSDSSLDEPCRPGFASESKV
Chain of Gi1 (P63096 whole entry): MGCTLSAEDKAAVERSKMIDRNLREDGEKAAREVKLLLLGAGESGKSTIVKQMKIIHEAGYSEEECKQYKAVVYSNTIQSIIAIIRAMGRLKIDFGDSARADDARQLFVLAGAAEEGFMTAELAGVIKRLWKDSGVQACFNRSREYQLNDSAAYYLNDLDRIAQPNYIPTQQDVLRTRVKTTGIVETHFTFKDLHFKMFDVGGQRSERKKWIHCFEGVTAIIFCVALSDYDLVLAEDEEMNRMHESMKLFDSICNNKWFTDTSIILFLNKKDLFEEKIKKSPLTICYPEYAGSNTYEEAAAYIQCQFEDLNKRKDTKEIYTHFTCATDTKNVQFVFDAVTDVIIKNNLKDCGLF
Chain of Gi2 (P04899 whole entry): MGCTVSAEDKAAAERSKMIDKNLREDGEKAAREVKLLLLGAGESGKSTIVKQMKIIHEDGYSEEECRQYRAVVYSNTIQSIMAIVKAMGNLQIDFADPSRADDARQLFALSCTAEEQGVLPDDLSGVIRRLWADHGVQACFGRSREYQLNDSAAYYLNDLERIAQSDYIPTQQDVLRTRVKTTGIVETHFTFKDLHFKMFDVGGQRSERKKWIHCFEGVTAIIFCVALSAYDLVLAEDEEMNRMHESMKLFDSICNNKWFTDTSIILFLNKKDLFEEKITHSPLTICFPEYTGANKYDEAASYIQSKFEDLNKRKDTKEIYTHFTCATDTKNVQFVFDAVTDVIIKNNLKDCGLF
Chain of Gs (P63092 whole entry): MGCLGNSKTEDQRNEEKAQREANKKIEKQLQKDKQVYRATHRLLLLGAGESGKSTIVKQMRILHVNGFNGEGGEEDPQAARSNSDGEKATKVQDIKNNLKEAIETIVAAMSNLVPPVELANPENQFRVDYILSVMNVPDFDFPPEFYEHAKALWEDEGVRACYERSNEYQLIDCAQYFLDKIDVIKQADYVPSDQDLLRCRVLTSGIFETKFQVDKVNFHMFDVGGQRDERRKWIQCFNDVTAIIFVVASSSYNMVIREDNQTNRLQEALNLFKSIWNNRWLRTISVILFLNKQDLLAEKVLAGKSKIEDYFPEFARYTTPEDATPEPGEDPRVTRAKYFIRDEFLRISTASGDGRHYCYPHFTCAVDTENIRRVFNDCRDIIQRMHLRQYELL
Chain of Go (P09471 whole entry): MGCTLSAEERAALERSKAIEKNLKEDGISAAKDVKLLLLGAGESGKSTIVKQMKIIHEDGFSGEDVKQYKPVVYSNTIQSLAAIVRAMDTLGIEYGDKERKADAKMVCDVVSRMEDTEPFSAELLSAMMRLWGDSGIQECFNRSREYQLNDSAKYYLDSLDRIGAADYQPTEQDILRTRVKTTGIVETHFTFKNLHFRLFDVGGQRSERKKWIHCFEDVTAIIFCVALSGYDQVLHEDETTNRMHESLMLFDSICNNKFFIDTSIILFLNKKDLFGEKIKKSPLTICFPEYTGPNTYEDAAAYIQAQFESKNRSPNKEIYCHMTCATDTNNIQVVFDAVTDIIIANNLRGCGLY

Regarding BODIPY-FL-GTPγS, the pKd (usually −log10 of the Kd, conventionally taken in molar units) was 8.22 at Go, 6.82 at Gi1, 6.52 on Gi2 and 7.15 on Gs.

With `CC(C)(C)NCC(O)COc1cccc2[nH]c(=O)[nH]c12` (centres unmarked) [CGP12177], the “effect on intensities of NTR1 spots (inhibition of BT-NT binding)” value in experiment [1] is listed as “no significant decrease”.

`Cc1ccc(OCC(O)C(C)NC(C)C)c2c1CCC2` (centres unmarked) [ICI 118551]: at β1 (5 nM BODIPY-TMR-CGP12177, 10 nM ICI118551), the “fluorescence intensity of the β1 receptors” value is “remains almost at the same level”. Besides, on β1 (5 nM BODIPY-TMR-CGP12177, 500 nM ICI118551), the “fluorescence intensity of β1” value is “dramatically decreases”. In addition, the negative-log Ki (pKi) (usually −log10 of the Ki, conventionally taken in molar units) at α2A was < 5.00.

Values taken from patent US8257965B2, “Arrays of biological membranes and methods and use thereof” (Corning Incorporated, priority 2001, dated 2012).
